# In patent US20210332139A1, “MODULATION OF LEUKOCYTE ACTIVITY IN TREATMENT OF NEUROINFLAMMATORY DEGENERATIVE DISEASE” (Leuvas Therapeutics, priority 2013, published 2021):
# Key:
# human primary PMNs = experiment: Static adhesion of human primary PMNs to ICAM-1 with signaling inhibitors; assay type: cell-based; details: for Adherent hPMNs to ICAM-1, n.t. (resting), Mean / Adherent hPMNs to ICAM-1, fMLP, Mean / Adherent hPMNs to ICAM-1, Aβ oligo, Mean: 30 min; for Adherent hPMNs to ICAM-1, fMLP, Mean: then 50 nM fMLP 1 min; for Adherent hPMNs to ICAM-1, Aβ oligo, Mean: then 10 μM Aβ 1 min; for Blockade of Aβ-induced adhesion of human neutrophils: result in words
# Method: As a model system, human primary PMNs were isolated form healthy donors stimulated to very rapid adhesion to purified human ICAM-1, ligand for the β2 integrins LFA-1 and Maci. fMLP (the classical chemoattractant) was the positive control. […] PMNs were treated for 30 min. with different concentrations of inhibitors followed by stimulation for 1 min with 50 nM fMLP or with 10 μM Aβ. The number of adherent cells was quantified by computer-assisted evaluation. Statistical analysis was SD.
# human neutrophils [1] = experiment: Isoluminol chemiluminescence ROS assay, human neutrophils; assay type: cell-based; details: result in words
# Method: One of the mechanisms of neuronal damage by beta-amyloid in Alzheimer's disease is the generation of reactive oxygen species (ROS). We determined whether Aβ1-42 oligomers induce ROS production in neutrophils by using a chemiluminescence assay.
# (§1) Isoluminol-based chemiluminescence assays were performed in HGCa in the presence of horseradish peroxidase (HRP) and isoluminol (both from Sigma-Aldrich) in a temperature-controlled Multilabel Count Victor X5 (Perkin Elmer). Assays were run in dark 96 well plates precoated with 250 μg/ml human fibrinogen in HGCa containing (final concentration): 100 μM isoluminol and 8 U/ml HRP. After addition of 1×10^5 human neutrophils or 7.5×10^5 mouse neutrophils, plates were left at 37° C. for 5-10 min and the reaction started by addition of the stimulus. Light emission was recorded every minute.
# (§2) We used the chemotactic peptide fMLP as positive control. […] Data are mean+/−SD for three independent experiments.
# neutrophils = experiment: Rapid adhesion of neutrophils, soluble versus fibrillary Aβ1-42; assay type: cell-based; details: 30 μM, mean+/−SD
# Description: Although two-times less efficient than the soluble form, fibrillary Aβ triggered a significant increase of rapid neutrophil adhesion on both ICAM-1 and fibrinogen (Table 8; data are expressed as the mean+/−SD of bound cells in 0.2 mm^2 from three independent experiments made in duplicate).
# [2] = tested on: Bend.3 endothelial cell line; experiment: Adhesion molecule expression on Bend.3 endothelial cells (immunofluorescence); assay type: cell-based, mouse; parameters: key: −: VCAM-1 and selectins were not expressed (indicated by -, Table 2); constitutively expressed at low levels on endothelial cells (indicated by +/−, some vessels were positive for ICAM-1, Table 2); an increase of ICAM-1 expression (indicated by +, Table 2); details: Bend.3 cells, 25 U/ml TNFα, 18 h, positive control
# Method: We performed in vitro experiments to study the effect of soluble Aβ1-42 oligomers on the endothelial cell line Bend.3, derived from mouse cerebral cortex purchased by ATCC& Cell Biology Collection (CRL-2299TM).
# Briefly, Bend.3 were cultured at a concentration of 20×10^3/ml on a glass coverslip in 24-well plates containing DMEM supplemented with 10% Fetal Calf Serum (FCS). Cells were stimulated with 10 μM Aβ 1-42, for 18 h in DMEM with 1% FCS. […] positive control, cells were treated with 25 U/ml of TNFα for 18 h in DMEM with 1% FCS. Bend.3 were rinsed with PBS and fixed with 4% PFA for 10 minutes. Cells were washed with PBS incubated with blocking buffer for 1 h at RT° C. Primary antibodies were diluted in 1% Bovine Serum Albumin (BSA) PBS. Cells were incubated overnight at 4° C. with 50 μg/ml anti-VCAM (hybridoma MK2.7), 10 μg/ml anti-ICAM (hybridoma YN1.7), 0.5 μg/ml anti-CD31 (370700, Invitrogen), 5 μg/ml anti-E-selectin (hybridoma RME-1) and 1.5 μg/ml anti-P-selectin (CD62P, BD Pharmigen). The day after, cells were rinsed 2 times with PBS and then incubated with 7.5 μg/ml biotinylated secondary antibody (rabbit anti-rat, T0226, VectorLab) for 1 h at RT° C. Cells were rinsed 2 times with PBS and incubated with 25 μg/ml Avidin-TexasRed (A2006, Vector Lab) for 1 h at RT° C. in the dark. After rinsing in PBS, cells were incubated with 1 μg/ml Dapi (D9542, Sigma-Aldrich, St. Louis, Mo.), for 5 minutes in the dark. Finally, glass coverslip was transferred on glass slides and mounted with Dako medium (S3023, DAKO NORTH AMERICA, Carpinteria, Calif.). Glass slides were kept at 4° C. in the dark and acquired by LEICA fluorescence microscopy (DM6000B, LEICA, Germany).
# We analyzed the expression of VCAM-1, ICAM-1, E- and P-selectin on Bend.3 after Aβ1-42 oligomers stimulation. TNF-α stimulation, which is well known to up-regulate the adhesion molecules expression, was used as positive control. We evaluated a dose-response effect of Aβ1-42 soluble oligomers on Bend.3 cells, ranging from 1 to 10 μM after 6 or 18 hours of treatment. After 18 h of treatment with 10 μM Aβ we observed a significant up-regulation of […] compared to non-stimulated control cells (CTRL) (Table 2). […] ICAM-1 was constitutively expressed at low levels on endothelial cells (indicated by +/−, some vessels were positive for ICAM-1, Table 2), but 18 h treatment with Aβ1-42 led to an increase of ICAM-1 expression (indicated by +, Table 2).
# mouse neutrophils = experiment: Isoluminol chemiluminescence ROS assay, mouse neutrophils; assay type: cell-based; details: mean+/−SD
# Method: as §1, §2
# Data are mean+/−SD counts per second.
# human neutrophils [3] = experiment: Rapid human neutrophil adhesion to ICAM-1, inhibition by bocMLF and PTx; assay type: cell-based
# Method: It is known that one of the receptors for Aβ is the receptor for fMLP, formylpeptide chemotactic receptor (FPR). To evaluate the contribution of this GPCR receptor on Aβ-dependent neutrophil adhesion, we inhibited its function using boc-MLF, a formyl-peptide chemotactic receptor antagonist. Human neutrophils were incubated for 2 minutes with buffer (control) or with oligomeric Aβ. 0.1 μM fMLP was used as a positive control. Values are expressed as the mean counts of bound cells in 0.2 mm^2 from three independent experiments in duplicate. Error bars represent SD. […] To exclude the possibility that rapid adhesion triggering was a consequence of a generic plasma membrane alteration due to the lipophilic nature of Aβ, we evaluated rapid adhesion in lymphocytes, which are known to lack fMLP receptors.
Compound,Blockade of Aβ-induced adhesion of human neutrophils (human primary PMNs),"Adherent hPMNs to ICAM-1, n.t. (resting), Mean (human primary PMNs; inhibitor 100 μM)","Adherent hPMNs to ICAM-1, fMLP, Mean (human primary PMNs; inhibitor 100 μM)","Adherent hPMNs to ICAM-1, Aβ oligo, Mean (human primary PMNs; inhibitor 100 μM)",further results
N#C/C(=C/c1ccc(O)c(O)c1)C(=O)NCc1ccccc1 [AG490],can block,–,–,–,"Adherent hPMNs to ICAM-1, n.t. (resting), Mean (human primary PMNs; inhibitor 200 μM): 23.2; Adherent hPMNs to ICAM-1, fMLP, Mean (human primary PMNs; inhibitor 200 μM): 274.5; Adherent hPMNs to ICAM-1, Aβ oligo, Mean (human primary PMNs; inhibitor 200 μM): 258.6"
"COc1cc(Nc2c(C#N)cnc3cc(OCCCN4CCN(C)CC4)c(OC)cc23)c(Cl)cc1Cl [Bosutinib, bosutinib]",–,19.3,98.2,95.1,–
C[C@@H]1CCN(C(=O)CC#N)C[C@@H]1N(C)c1ncnc2[nH]ccc12 [CP-690550],can block,–,–,–,"Adherent hPMNs to ICAM-1, n.t. (resting), Mean (human primary PMNs; inhibitor 200 μM): 22.1; Adherent hPMNs to ICAM-1, fMLP, Mean (human primary PMNs; inhibitor 200 μM): 209.6; Adherent hPMNs to ICAM-1, Aβ oligo, Mean (human primary PMNs; inhibitor 200 μM): 172.4"
c1ccc2c(c1)[I+]c1ccccc1-2 [DPI],–,–,–,–,Effect on fMLP and Aβ1-42 ROS responses (human neutrophils [1]): suppressed
"Cc1nc(Nc2ncc(C(=O)Nc3c(C)cccc3Cl)s2)cc(N2CCN(CCO)CC2)n1 [Dasatinib, dasatinib]",–,–,–,–,"Adherent hPMNs to ICAM-1, n.t. (resting), Mean (human primary PMNs; inhibitor 20 μM): 24.9; Adherent hPMNs to ICAM-1, fMLP, Mean (human primary PMNs; inhibitor 20 μM): 230.8; Adherent hPMNs to ICAM-1, Aβ oligo, Mean (human primary PMNs; inhibitor 20 μM): 227.5"
NC(=O)c1cccc(-c2cc(Nc3ccc(OC(F)(F)F)cc3)ncn2)c1 [GNF-2],can block,25.2,144.2,115.5,–
"C=CC(=O)N1CCC[C@@H](n2nc(-c3ccc(Oc4ccccc4)cc3)c3c(N)ncnc32)C1 [Ibrutinib, ibrutinib]",–,21.9,80.0,78.0,–
"Cc1ccc(NC(=O)c2ccc(CN3CCN(C)CC3)cc2)cc1Nc1nccc(-c2cccnc2)n1 [Imatinib, imatinib]",can block,23.5,124.9,109.3,–
"Oc1cc(O)cc(/C=C/c2ccc(O)c(O)c2)c1 [Piceatannol, piceatannol]",–,–,–,–,"Adherent hPMNs to ICAM-1, n.t. (resting), Mean (human primary PMNs; inhibitor 50 μM): 21.0; Adherent hPMNs to ICAM-1, fMLP, Mean (human primary PMNs; inhibitor 50 μM): 218.7; Adherent hPMNs to ICAM-1, Aβ oligo, Mean (human primary PMNs; inhibitor 50 μM): 276.1"
"N#CC[C@H](C1CCCC1)n1cc(-c2ncnc3[nH]ccc23)cn1 [Ruxolitinib, ruxolitinib]",–,17.0,243.8,244.5,–
Cc1cnc(Nc2ccc(OCCN3CCCC3)cc2)nc1Nc1cccc(S(=O)(=O)NC(C)(C)C)c1 [TG101348],can block,20.1,147.2,134.8,–
COc1cc2ncnc(Nc3ccc(O)c(Br)c3)c2cc1OC [WHI-P154],can block,23.5,207.8,218.8,–
Fib Abeta: fibrillary form of Aβ1-42 peptide,–,–,–,–,Rapid adhesion to Fibrinogen (neutrophils): 171 ± 21.8 bound cells in 0.2 mm^2; Rapid adhesion to ICAM-1 (neutrophils): 457.3 ± 45.54 bound cells in 0.2 mm^2
TNF-a,–,–,–,–,CD31 expression (endothelial cell marker) [2]: +; E-sel expression [2]: +; ICAM-1 expression [2]: +; P-sel expression [2]: +; VCAM-1 expression [2]: +; ROS generation (chemiluminescence) (mouse neutrophils; 1 min): 38 ± 20 counts per second; ROS generation (chemiluminescence) (mouse neutrophils; 2 min): 62 ± 21 counts per second; ROS generation (chemiluminescence) (mouse neutrophils; 3 min): 102 ± 28 counts per second; ROS generation (chemiluminescence) (mouse neutrophils; 4 min): 136 ± 26 counts per second; ROS generation (chemiluminescence) (mouse neutrophils; 5 min): 187 ± 14 counts per second
bocMLF,inhibits,20.1,55.0,81.8,"Neutrophil adhesion to ICAM-1 after inhibitor pre-treatment (human neutrophils [3]; buffer (control), no stimulus): 17.3 ± 6.6 bound cells in 0.2 mm^2; Neutrophil adhesion to ICAM-1 after inhibitor pre-treatment (human neutrophils [3]; stimulated 2 minutes with oligomeric Aβ): 74.8 ± 25.5 bound cells in 0.2 mm^2; Neutrophil adhesion to ICAM-1 after inhibitor pre-treatment (human neutrophils [3]; stimulated with 0.1 μM fMLP): 69 ± 26.5 bound cells in 0.2 mm^2"
